18 compounds from patent publication US20050245527A1, “Nitrogen containing heterocyclic compounds and medicines containing the same” (priority 2002, published 2005) can be followed below.

The test relates to sodium channels. It is filed as cell-based. The settings on record: read-out: IC50 (μM), sodium channel-inhibiting activity; rat fetal cultured hippocampal neurons, SBFI fluorescence in the presence of 4-aminopyridine, 5 minutes after addition, 1 μM tetrodotoxin = 100%.
In the case of `O=c1[nH]ccnc1CN1CCC(CS(=O)(=O)c2ccccc2F)CC1` [Example 338, 3-[4-[(2-Fluorophenylsulfonyl)methyl]piperidino]methyl-1H-pyrazin-2-one], the half-inhibitory concentration (IC50) was 9.8 µM.
On to `O=c1[nH]ccnc1CN1CCOC(CCc2ccccc2F)C1` (stereo not drawn) [Example 340, 3-[3-[2-(2-Fluorophenyl)ethyl]morpholin-1-yl]methyl-1H-pyrazin-2-one], for which the IC50 stood at 7.1 µM.
For `O=c1[nH]ccnc1CN1CCOC(/C=C/c2ccccc2F)C1` (stereo not drawn) [Example 341, (E)-3-[3-[2-(2-Fluorophenyl)vinyl]morpholin-1-yl]methyl-1H-pyrazin-2-one], the IC50 was 7.1 µM.
In the case of `O=c1[nH]ccnc1CN1CCOC(COc2ccccc2F)C1` (stereo not drawn) [Example 342, 3-[3-(2-Fluorophenoxymethyl)morpholin-1-yl]methyl-1H-pyrazin-2-one] it was 3 µM; in that of `O=C(Cc1ccccc1OC(F)(F)F)C1CCN(Cc2ncc[nH]c2=O)CC1` [Example 345, 3-[4-[2-[2-(Trifluoromethoxy)phenyl]acetyl]piperidino]methyl-1H-pyrazin-2-one], 2.1 µM.
With `CCCOc1ccccc1CC(=O)C1CCN(Cc2ncc[nH]c2=O)CC1` [Example 348, 3-[4-[2-(2-n-Propoxyphenyl)acetyl]piperidino]methyl-1H-pyrazin-2-one], the half-inhibitory concentration (IC50) amounted to 2.6 µM.
In the case of `CC(C(=O)C1CCN(Cc2ncc[nH]c2=O)CC1)c1ccccc1F` (stereo not drawn) [Example 349, 3-[4-[2-(2-Fluorophenyl)propionyl]piperidino]methyl-1H-pyrazin-2-one] it was 8.9 µM; in that of `O=C(Cc1cccc2ccccc12)C1CCN(Cc2ncc[nH]c2=O)CC1` [Example 353, 3-[4-[2-(1-Naphthyl)acetyl]piperidino]methyl-1H-pyrazin-2-one], 1.7 µM; in that of `CC1(COc2ccccc2Cl)CCN(Cc2ncc[nH]c2=O)CC1` [Example 354, 3-[4-(2-Chlorophenoxymethyl)-4-methylpiperidino]methyl-1H-pyrazin-2-one], 2.8 µM.
In the case of `Cc1ccccc1OCC1(C)CCN(Cc2ncc[nH]c2=O)CC1` [Example 355, 3-[4-Methyl-4-(2-methylphenoxymethyl)piperidino]methyl-1H-pyrazin-2-one] it was 2.5 µM; in that of `COc1ccccc1OCC1(C)CCN(Cc2ncc[nH]c2=O)CC1` [Example 356, 3-[4-(2-Methoxyphenoxymethyl)-4-methylpiperidino]methyl-1H-pyrazin-2-one], 2.9 µM.
In the case of `O=C(Cc1ccccc1-c1ccccc1)C1CCN(Cc2ncc[nH]c2=O)CC1` [Example 359, 3-[4-[2-(2-Biphenyl)acetyl]piperidino]methyl-1H-pyrazin-2-one] it was 1.4 µM; in that of `O=C(Cc1ccccc1Br)C1CCN(Cc2ncc[nH]c2=O)CC1` [Example 362, 3-[4-[2-(2-Bromophenyl)acetyl]piperidino]methyl-1H-pyrazin-2-one], 4.5 µM; in that of `O=C(Cc1ccccc1F)C1CCN(Cc2ccn[nH]c2=O)CC1` [Example 364, 4-[4-[2-(2-Fluorophenyl)acetyl]piperidino]methyl-2H-pyridazin-3-one], 9.3 µM.
With `O=C(Cc1ccccc1F)C1(F)CCN(Cc2ncc[nH]c2=O)CC1` [Example 370, 3-[4-Fluoro-4-[2-(2-fluorophenyl)acetyl]piperidino]methyl-1H-pyrazin-2-one], the IC50 stood at 9.6 µM.
In the case of `O=C1CN(Cc2ncc[nH]c2=O)CCC1CCc1ccccc1F` (stereo not drawn) [Example 371, 3-[4-[2-(2-Fluorophenyl)ethyl]-3-oxopiperidino]methyl-1H-pyrazin-2-one] it was 9 µM.
In the case of `O=C(Cc1ccccc1C(F)(F)F)C1(F)CCN(Cc2ncc[nH]c2=O)CC1` [Example 372, 3-[4-Fluoro-4-[2-[2-(trifluoromethyl)phenyl]acetyl]piperidino]methyl-1H-pyrazin-2-one] it was 3.3 µM; in that of `O=c1[nH]ccnc1CN1CCCC(COc2ccccc2F)CC1` (stereo not drawn) [Example 388, 3-[4-(2-Fluorophenoxymethyl)azepan-1-yl]methyl-1H-pyrazin-2-one], 4.7 µM.

By IC50 is commonly meant the concentration that inhibits the measured activity by half.
